Here are results for 16 compounds from ChEMBL document CHEMBL3097987, “Pyrrolizines: Promising scaffolds for anticancer drugs” (Bioorg Med Chem, 2014).

The target in one test is Tubulin. Briefly: Inhibition of tubulin (unknown origin) polymerization. Type of test: protein-complex assay, Homo sapiens.
Test [1] concerns the target Peptidyl-prolyl cis-trans isomerase NIMA-interacting 1 (Homo sapiens, UniProt Q13526). Briefly: Inhibition of Pin-1 (unknown origin) using Suc-Ala-Glu-Pro-Phe-pNA as substrate preincubated for 300 seconds followed by substrate addition by UV/Vis spectrophotometric analysis.
Another test has as its system HT-29. Briefly: Cytotoxicity against human HT-29 cells relative to licofelone. Type of test: functional.
Test [2] deals with MCF7. Briefly: Cytotoxicity against human MCF7 cells relative to licofelone. Type of test: functional.
Test [3] concerns MDA-MB-231. Nature of the test: Cytotoxicity against human MDA-MB-231 cells relative to licofelone. Type of test: functional.
Test [4] concerns MCF7. Briefly: Cytotoxicity against human MCF7 cells relative to 5-flurouracil. Type of test: functional.
In test [5] the test system is MDA-MB-231. Briefly: Cytotoxicity against human MDA-MB-231 cells relative to 5-flurouracil. Type of test: functional.
A further test has as its target T1, Aromatase (Homo sapiens, UniProt P11511).
T1 sequence (P11511 whole entry): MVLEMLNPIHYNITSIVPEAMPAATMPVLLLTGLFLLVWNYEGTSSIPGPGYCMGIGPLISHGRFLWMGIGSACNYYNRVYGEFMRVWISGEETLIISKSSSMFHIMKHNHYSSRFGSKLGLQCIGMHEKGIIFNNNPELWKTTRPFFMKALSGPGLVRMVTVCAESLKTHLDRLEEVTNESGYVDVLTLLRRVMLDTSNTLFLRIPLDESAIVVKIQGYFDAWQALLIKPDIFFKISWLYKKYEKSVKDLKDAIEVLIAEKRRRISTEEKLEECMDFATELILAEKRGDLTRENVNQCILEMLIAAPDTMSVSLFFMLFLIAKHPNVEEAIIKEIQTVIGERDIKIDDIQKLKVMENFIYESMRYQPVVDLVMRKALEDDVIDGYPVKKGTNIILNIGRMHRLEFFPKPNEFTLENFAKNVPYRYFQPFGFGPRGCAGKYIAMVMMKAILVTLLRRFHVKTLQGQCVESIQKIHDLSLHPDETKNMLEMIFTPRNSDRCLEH
Briefly: Inhibition of aromatase (unknown origin).

The test system of another test is B16. Nature of the test: Cytotoxicity against mouse B16 cells assessed as tumor growth inhibition relative to control. Type of test: functional.
Test [6] is described as follows: Cytotoxicity against mouse mammary carcinoma 755 cells assessed as tumor growth inhibition relative to control. Type of test: functional.
A short description of test [7]: Cytotoxicity against mouse LLC cells assessed as tumor growth inhibition relative to control. Type of test: functional, Lewis lung carcinoma.
Test [8] is described as follows: Growth inhibition of mouse mammary carcinoma 755 cells relative to control. Type of test: functional.
The next test has as its system Jensen sarcoma. Briefly: Growth inhibition of rat Jensen sarcoma relative to control. Type of test: functional.
A further test deals with Bel-7402. Nature of the test: Ratio of cisplatin IC50 to compound IC50 for human Bel7402 cells. Type of test: functional.
Test [9] is described as follows: Antitumor activity against human HT1080 cells by MTT assay. Type of test: functional, cell-based. The settings on record: HT-1080. A general note: Tetrazolium dyes change colour on reduction, which living cells bring about.
Test [10] is described as follows: Antitumor activity against human Bel7402 cells by MTT assay. Type of test: functional, cell-based. The settings on record: Bel-7402.
The next test concerns HT-1080. Briefly: Ratio of cisplatin IC50 to compound IC50 for human HT1080 cells. Type of test: functional.

Peptidyl-prolyl cis-trans isomerase NIMA-interacting 1, sequence (Q13526 whole entry): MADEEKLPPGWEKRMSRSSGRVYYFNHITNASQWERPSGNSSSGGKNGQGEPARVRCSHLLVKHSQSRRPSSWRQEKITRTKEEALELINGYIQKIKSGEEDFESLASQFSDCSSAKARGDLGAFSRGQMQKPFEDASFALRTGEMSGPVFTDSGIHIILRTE

Turning to `COc1ccc(-c2csc3c2-n2cccc2C3=O)cc1O`, at Tubulin, the IC50 (as a rule, the concentration that inhibits the measured activity by half) was 2.9 µM.

For `CO[C@@H]1C[C@@H]2[C@@H](COP(=O)(O)O)[C@@H](C(=O)NCc3ccccc3)[C@@H](c3ccc4ccccc4c3)N2C1`, in [1], the affinity, expressed as Ki, was 9 µM.

For the compound `CC1(C)Cc2c(-c3ccccc3)c(-c3ccc(Cl)cc3)c(C(=O)Cn3cncn3)n2C1`, the “fold change (FC)” value in the test on HT-29, in the test on MCF7 [2], in the test with MDA-MB-231 [3], in the test on MCF7 [4] and in the test on MDA-MB-231 [5] was 2 each time.

In the case of `O=C1/C(=C\c2cccnc2)C(c2ccccc2)n2cccc21` (configuration not stated), it took 3 µM to reach half-maximal inhibition on Aromatase (IC50).

Take `O=C1/C(=C\c2ccncc2)C(c2ccccc2)n2cccc21` (configuration not stated): it took 0.65 µM to reach half-maximal inhibition against Aromatase (IC50).

For `CCOC(=O)c1c2n(c3c(SC)ncnc13)CCC2`, in the test on B16, the TGI (commonly the reduction of tumour growth relative to the control group) was found to be 40%.

As to `CCOC(=O)Sc1ncnc2c(C(=O)OCC)c3n(c12)CCC3`, the results for the TGI (in the test on B16; in [6]) were 40% and 34%, respectively.

With `CCOC(=O)c1c2n(c3c(SCc4ccccc4)ncnc13)CCC2`, the results for the TGI (in [7]; with B16) were 43% and 40%, respectively.

Turning to `NC(=O)c1c2n(c3c(-c4ccccc4)ncnc13)CCC2`, the growth inhibition (GI) (in [8]; in the test on Jensen sarcoma) was 73% throughout.

`CN(C)/C=N/C(=O)c1c2n(c3c(-c4ccccc4)ncnc13)CCC2`: the “growth inhibition (GI)” value (in test [8]; in the test on Jensen sarcoma) was 78% throughout.

Turning to `CSc1sc2c(c1-c1ccc([N+](=O)[O-])cc1)-n1cccc1/C2=N\OCOCCN1CCN(C)CC1`, the figures for the “Ratio IC50” value in the test with Bel-7402 and in the test with HT-1080 were 2.5 and 3.3, respectively. The results for the IC50 in test [9] and in test [10] were 8.2 µM and 18.2 µM, respectively.

Turning to `O=C(NCc1ccccc1)C1C(COP(=O)(O)O)C2CCCN2C1c1ccc2ccccc2c1` (racemic), the Ki (commonly the equilibrium dissociation constant of an inhibitor or competing ligand from its target) in [1] stood at 15 µM.

Regarding `O=C(NCc1ccccc1)C1C(COP(=O)(O)O)C2CCCN2C1c1ccccc1` (racemic), in [1], the affinity, expressed as Ki, was 44 µM.

In test [1], `O=C(NCc1ccccc1)C1C(COP(=O)(O)O)C2CCCN2C1c1c(F)c(F)c(F)c(F)c1F` (racemic) displayed a Ki of 16 µM.

For the compound `O=C(NCc1ccc2c(c1)OCO2)C1C(COP(=O)(O)O)C2CCCN2C1c1ccc2ccccc2c1` (racemic), the Ki in test [1] came to 32 µM.

With `COc1cc([C@@H]2c3cc4c(cc3C[C@H]3COC(=O)[C@@H]32)OCO4)cc(OC)c1OC` [DESOXYPODOPHYLLOTOXIN], at Tubulin, the IC50 was 2.4 µM.
